{
  "source": "patent US20160192658A1",
  "about": "(priority 2013, published 2016)",
  "assay": "in vitro",
  "conditions": "human",
  "data": [
    {"smiles": "NC(=O)c1ncn([C@@H]2O[C@H](CO)[C@@H](O)[C@H]2O)n1", "note": "[Ribavirin, ribavirin]", "values": [
      {"measurement": "CC50 at 5 days", "result": "> 200", "unit": "µM"}
    ]}
  ]
}
